The term pIC50 denotes −log10 of the IC50, conventionally taken in molar units. A higher pIC50 goes with a low IC50.

Experimental findings from BindingDB's records for doi:10.1016/j.bmcl.2011.11.065 (Nerviano Medical Sciences, 2011) are described below.

pIC50: −log10 of the molar value. Where only a bound is given, the exact number is not on record here.

The target in the assay is 3-phosphoinositide-dependent protein kinase 1 (PDPK1) (Homo sapiens) (UniProt O15530). Description: Inhibition of PDK1.

On to `CN1CCN(c2ccc(OC(F)(F)F)c(Nc3nccc(-c4cc5c(n4C)CCNC5=O)n3)c2)CC1`, for which the pIC50 is below 5.00.

`CN1CCN(c2ccc(OC(F)(F)F)c(Nc3nccc(-c4cc(C(N)=O)cn4C)n3)c2)CC1` had a pIC50 below 5.00.
